Assay results taken from paper PMC5321753, “Enhanced expression of ADCY1 underlies aberrant neuronal signalling and behaviour in a syndromic autism model” (Nature Communications, 2017).

How the values were obtained:
ADCY1 = ADCY1 protein (western blot) and Adcy1 mRNA (qRT-PCR) in cultured hippocampal neurons after DHPG; type: cell-based, mouse; conditions: DHPG 100 μM
Description: (§1) Primary hippocampal neurons were cultured as described, and used for the examination of mGluR1/5-mediated signalling and protein synthesis. Neurons were treated with 100 μM DHPG ((RS)-3,5-dihydroxyphenylglycine). Protein level and mRNA level were examined by western blot (for ADCY1, β-actin, p-ERK1/2 and ERK1/2) and quantitative RT-PCR (for Adcy1 and Gapdh mRNA), respectively.

ERK1/2 = ERK1/2 activation in cultured hippocampal neurons after DHPG; type: cell-based, mouse; conditions: both WT and Fmr1 KO neurons, DHPG 100 μM
Description: as §1

cAMP = tested on: cAMP; parameters: method as in PMID 9844008; conditions: lower dose 0.03 mg kg^-1; cited from earlier work
WT and Fmr1 KO mice [1] = assay: Light/dark test; type: in vivo, mouse
Description: Light/dark test was examined as described in our previous study. Light/dark test was performed using 3-month (+/−10 days) old mouse, which was first placed in the dark half of the chamber (Coulbourn Instruments). After 1 min of habituation, the trap door was opened and the mouse was allowed to move freely between the two chambers for 5 min. The time spent in each chamber and the number of entries into the lit side were recorded.
(§2) NB001 was dissolved in water to give a 25 mM stock solution. The stock was diluted in saline and IP injected into mice at 1 mg kg^−1 body weight. In all cases, the drug was administered 1 h before testing. Control mice were treated similarly but injected with saline.
(§3) To inhibit phosphodiesterase (PDE), rolipram was dissolved in 10% kolliphore and IP injected into mice at 0.5 or 0.03 mg kg^−1. The use of the higher dose (that is, 0.5 mg kg^−1) was to ensure sufficient inhibition of PDE[44][45]. […] Rolipram- or vehicle (10% kolliphore)-injected mice were examined with light/dark test and AGS 30 min after drug administration.

fly model of FXS = tested on: fly model of FXS; parameters: method as in PMID 25568131; conditions: cited from earlier work
Fmr1 KO mice [2] = tested on: Fmr1 KO mice; parameters: method as in PMID 25568131; conditions: cited from earlier work
Fmr1 KO mice [3] = tested on: Fmr1 KO mice; parameters: method as in PMID 27445731; conditions: cited from earlier work
WT and Fmr1 KO mice [4] = assay: Audiogenic seizures (AGS) induced by 120 dB sound; type: in vivo, mouse
Description: Audiogenic seizures (AGS) were examined with 21- to 24-day-old-mouse (7), as this phenotype is dependent on the age of the mouse and only detected in juvenile Frm1 KO mouse. Mouse was placed in a box (30 cm L × 17 cm W × 12 cm H) with a flat plastic lid. A personal alarm (Streetwise, item # SWPDAL) was taped to the lid of the box and wired to a DC power supply to keep the sound amplitude constant. The mouse was allowed to acclimatize to the box for 5 min, following which 120 dB sound was emitted from the alarm for 2 min. The number of mice undergoing seizure activity within the 2-min period was counted. Audiogenic seizures were classified into different stages: wild running, clonic/tonic seizure and death.
as §2, §3

[5] = Fmr1 KO mice, rolipram at 0.5 or 0.03 mg kg^-1, systemic
[6] = Fmr1 KO mice, rolipram 0.03 mg per kg, 30 min before 120 dB stimulation
[7] = Fmr1 KO mice, rolipram 0.5 mg kg^-1 IP, 30 min before testing, 120 dB
[8] = WT mice, rolipram 0.03 mg per kg, 30 min before 120 dB stimulation
[9] = WT mice, rolipram 0.5 mg kg^-1 IP, 30 min before testing, 120 dB

NC(C(=O)O)c1cc(O)cc(O)c1 (racemic) [DHPG, (RS)-3,5-dihydroxyphenylglycine]
ADCY1 protein level in Fmr1 KO neurons (ADCY1; cultured Fmr1 KO hippocampal neurons): no DHPG-triggered increase
Adcy1 mRNA levels (ADCY1; cultured WT and Fmr1 KO hippocampal neurons): did not alter
ADCY1 protein level in WT neurons (ADCY1; cultured WT hippocampal neurons): up-regulation
downstream intracellular signalling target ERK1/2 (ERK1/2): activates

COc1ccc(C2CNC(=O)C2)cc1OC1CCCC1 (stereo not drawn) [rolipram]
cAMP changes (cAMP): not sufficient to cause cAMP changes
abnormal behaviour in light/dark test (WT and Fmr1 KO mice [1]; [5]): did not correct
behavioral changes in light/dark test (treatment effect) (WT and Fmr1 KO mice [1]; WT or Fmr1 KO mice, rolipram 0.03 mg per kg i.p., 30 min after injection): n.s.
behavioural changes in light/dark test (drug effect) (WT and Fmr1 KO mice [1]; WT or Fmr1 KO mice, rolipram 0.5 mg kg^-1 i.p., 30 min after injection): does not cause significant behavioural changes
learning and memory in the fly model of FXS (fly model of FXS): improved
exaggerated mGluR1/5-mediated long-term synaptic depression phenotype (Fmr1 KO mice [2]): rescued
signalling abnormalities in the hippocampus (Fmr1 KO mice [3]): failed to correct
% Clonic/tonic seizure (WT and Fmr1 KO mice [4]; [6]): 35.7%
% Death (WT and Fmr1 KO mice [4]; [6]): 14.3%
% Wild running (WT and Fmr1 KO mice [4]; [6]): 50%
% Clonic/tonic seizure (WT and Fmr1 KO mice [4]; [7]): 46.7%
% Death (WT and Fmr1 KO mice [4]; [7]): 13.3%
% Wild running (WT and Fmr1 KO mice [4]; [7]): 60%
AGS (WT and Fmr1 KO mice [4]; [5]): did not correct
% Clonic/tonic seizure (WT and Fmr1 KO mice [4]; [8]): 0%
% Death (WT and Fmr1 KO mice [4]; [8]): 0%
% Wild running (WT and Fmr1 KO mice [4]; [8]): 13.3%
% Clonic/tonic seizure (WT and Fmr1 KO mice [4]; [9]): 0%
% Death (WT and Fmr1 KO mice [4]; [9]): 0%
% Wild running (WT and Fmr1 KO mice [4]; [9]): 25%
